Reference: patent publication US12251385B2, “Covalent inhibitors of menin-MLL interaction for diabetes mellitus” (BIOMEA FUSION, INC., priority 2021, dated 2025)
“Also recorded” adds a separate entry of the source.

Key:
[1] = system: Zucker Diabetic Fatty (ZDF) Rat; assay: ZDF rat model, 16 days dosing and drug washout to Day 29 (Example 105); format: in vivo; conditions: ZDF rats
Method: (§1) ZDF rats were treated daily with Compound 10, vehicle, or pioglitazone for sixteen days and monitored for an additional two weeks post-treatment until Day 29. STZ rat models were induced through pre-treatment of animals on a high-fat diet with low doses of streptozotocin at Day −14 and Day −7 prior to starting treatment at Day Zero until Day 16. ZDF and STZ rats were monitored for fasting blood glucose levels, oral glucose tolerance test (OGTT), insulin and C-peptide levels, HOMA-IR (Homeostatic Model Assessment of Insulin Resistance), blood lipemic levels, and body weight according to the schematic for each model below. ZDF rats were analyzed for indicated readouts for fifteen days post-treatment for OGTT at Day 29, and serum insulin and C-peptide at Day 31.
ZDF Rat Model—three treatment groups 1. Vehicle; 2. Compound 10 at 175 mg/kg; and 3. Pioglitazone at 30 mg/kg; n=10 per group. Daily dosing zero to sixteen days QD 4 drug wash out at sixteen to twenty-nine days. Rats were monitored for the following parameters through dosing and wash out phases—body weight, fasting blood sugar, blood insulin, C-peptide, and OGTT.

[2] = system: Zucker diabetic fatty rats (ZDF rats, genotype ZDF-Lepr^fa/Crl); assay: Restoration of glycemic control in diabetic fatty rats, dosing Days 1-16 (Example 102); format: in vivo, rat
Method: The present examples provides the ability of Compound 10 to restore glycemic control to diabetic Zucker diabetic fatty rats (ZDF rats, genotype ZDF-Lepr^fa/Crl; Charles River). Cornicelli et al., 2005, Charles River.
(§2) Control and test compounds were stored at 4° C. and prepared weekly as needed. The vehicle for positive control pioglitazone was 0.25% carboxymethylcellulose and 1% Tween® 80 in reverse osmosis deionized water. The vehicle for Compound 10 was 10% DMSO, 10% Solutol HS 15, and 80% (10% hydroxypropyl-β-cyclodextrin in 50 mM citrate buffer at pH 3.0).
(§3) On Day −3, twenty-four ZDF rats (plus eight spare ZDF rats) were measured for body weight and non-fasting glucose. LabDiet 5008 was provided ad libitum throughout the study, except during designated procedures, as was water. In order to minimize the effects of stress on blood glucose and body, all animals including the spares received daily sham doses with phosphate buffered saline pH 7.2 (dose volume 5 mL/kg) via gavage beginning on Study Day −5 to Day −1.
Vehicle, control, and test compound were administered via oral gavage according to the following design on Days 1-16.
On Days −3, 1, 8, and 14 non-fasting blood glucose was measured. […] The animals were weighed, and the animals were placed in clean cages without food. Access to water was provided throughout the procedure. The animals were fasted for five hours and a blood glucose measurement was determined. The animals were dosed via oral gavage with 2 g/kg glucose (10 mL/kg). Blood glucose was determined via tail snip. The second drop of blood from the animal was placed on a hand-held glucometer (Abbott Alpha Trak) at the following times relative to the glucose dose: zero (just prior to glucose dose), 15, 30, 60, 90, and 120 min. Following the final blood glucose measurement, food was returned to the cages. On Day 17, 4-hour fasting glucose was measured. Serum samples were used to measure insulin by ELISA. Analysis was performed in one to three days of each collections. […]

[3] = system: Type 2 Diabetes Mellitus (T2DM) Zucker Diabetic Fatty Rat model; assay: Glycemic control in ZDF rats, 28 days treatment plus 28 days post-treatment (Example 104); format: in vivo
Method: Rats were treated daily with Compound 10, liraglutide, or vehicle for twenty-eight days and monitored for an additional twenty-eight days post-treatment.

[4] = system: Zucker Diabetic Fatty (ZDF) rats; assay: Reduction in HbA1c in ZDF rats, 28 days dosing and washout (Example 106); format: in vivo, rat
Method: Zucker Diabetic Fatty (ZDF) rats were dosed daily with Compound 10, liraglutide, or vehicle for twenty-eight days (n=10 per group) and monitored for an additional twenty-eight days post last dose. Fasting blood glucose, insulin, C-peptide levels, HbA1c, oral glucose tolerance test (OGTT), and body weight were monitored during and post-treatment.
ZDF Rat Model—five treatment groups 1. Vehicle; 2. Compound 10 at 40 mg/kg; 3. Compound 10 at 85 mg/kg; 4. Compound 10 at 170 mg/kg; and 5. Liraglutide at 0.2 mg/kg; n=10 per group. Group 2 dose (40 mg/kg) was increased to 200 mg/kg on Day 17 for rest of the dosing phase. Daily dosing zero to twenty-eight days days QD 4 drug wash out twenty-eight to fifty-six days. Rats were monitored for the following parameters through dosing and wash out phases—body weight, fasting blood sugar, blood insulin, C-peptide, OGTT, and HbA1C.

[5] = system: Streptozotocin-induced Rat (STZ); assay: STZ rat model, 16 days dosing (Example 105); format: in vivo; conditions: STZ rats
Method: as §1
STZ Rat Model—three treatment groups 1. Vehicle; 2. Compound 10 at 175 mg/kg; and 3. Pioglitazone at 30 mg/kg; n=10 per group. Fourteen-day STZ pretreatment prior to dosing. Daily dosing zero to sixteen days QD. Rats were monitored for the following parameters through dosing—body weight, blood glucose levels, and OGTT.

[6] = system: streptozotocin (STZ) induced type II diabetes in Wistar Han rats; assay: Restoration of glycemic control in streptozotocin-induced rats (Example 103); format: in vivo, rat
Method: The present example provides the ability of Compound 10 to restore glycemic control to streptozotocin (STZ) induced type II diabetes in Wistar Han rats. Fahmy et al., 2017, World J. Pharm. Med. Res. 3(3):37-39.
as §2, with “3.0). The vehicle for streptozotocin pretreatment was 0.1 M sodium citrate pH 4.5.” for “3.0).”
as §3, with “Wistar Han” for “ZDF”, “Starting on Day −42, D12451 Research Diet” for “LabDiet 5008”, “−1. 20% Glucose in drinking water (200 g/L) was provided ad libitum for 24 hr after streptozotocin injection on Day −14 and Day −7.” for “−1.”
On Days −14 and −7, streptozotocin was administered at 30 mg/kg/day QD intraperitoneally. Starting on Day 1, control and test compound were administered on the following schedule.
On Days −7 to −1 and on Days 1, 8, and 14 non-fasting blood glucose was measured. On Day 15, an oral glucose tolerance test was administered. The animals were weighed and the animals were placed in clean cages without food. Access to water was provided throughout the procedure. The animals were fasted for five hours and a blood glucose measurement was determined. The animals were dosed via oral gavage with 2 g/kg glucose (10 mL/kg). Blood glucose was determined via venipuncture. The second drop of blood from the animal was placed on a hand-held glucometer (Abbott Alpha Trak) at the following times relative to the glucose dose: zero (just prior to glucose dose), 15, 30, 60, 90, and 120 min. Following the final blood glucose measurement, food was returned to the cages. On Day 17, 4-hour fasting glucose was measured. Serum samples were used to measure insulin by ELISA. Analysis was performed in one to three days of each collection. On Day 17, terminal blood collection was obtained at about 8 mL per animal and measured for blood glucose.

[7] = 175 mg/kg QD, after two weeks of treatment
[8] = 175 mg/kg QD, after two weeks of treatment, p<0.05
[9] = twenty-eight days of treatment, FIG. 18
[10] = up to the last day of dosing, lasting two weeks post last dose

C=CC(=O)N[C@@H]1CCCN(Cc2ccnc(C(=O)Nc3ccc(-c4cc5c(N6CCOCC6)ncnc5[nH]4)cc3)c2)C1 [Compound 10]
body weight ([1]; 175 mg/kg QD for sixteen days, 175 mg/kg): reduces body weight; also recorded: Significant reductions
blood lipemic levels (cholesterol, triglycerides) ([1]; 175 mg/kg QD for sixteen days, Day 17, p<0.01, 175 mg/kg): significantly reduces; also recorded: Significant reductions
reduction in fasting blood glucose levels [1, 7]: ~50%
reduction in non-fasting blood glucose levels [1, 7]: ~50%
HOMA-IR ([1]; 175 mg/kg QD, after two weeks of treatment, p<0.001): reduced
C-peptide levels [1, 8]: significantly reduced
serum insulin levels [1, 8]: significantly reduced
OGTT AUC reduction, Day 15 ([1]; 175 mg/kg QD, p<0.001): 54%
OGTT AUC reduction, Day 29 ([1]; drug washout, ~two weeks after the last dose, p<0.05): 40%
insulin sensitivity (HOMA-IR) ([1]; sixteen days of treatment, FIG. 16): increases insulin sensitivity
blood glucose, insulin, and C-peptide levels during drug washout ([1]; two weeks after the last dose, FIG. 14): maintains significant impact
insulin, non-fasting state ([2]; 175 mg/kg/day PO QD, Days 1, 8, 14, compared to vehicle and control, FIG. 2A): significant reduction
glucose, fasting state ([2]; 175 mg/kg/day PO QD, compared to vehicle and control, FIG. 1B): significant reduction
insulin, fasting state ([2]; 175 mg/kg/day PO QD, compared to vehicle and control, FIG. 2B): significant reduction
insulin resistance (HOMA), non-fasting state ([2]; 175 mg/kg/day PO QD, compared to vehicle and control, FIG. 3A): significant reduction
insulin resistance (HOMA), fasting state ([2]; 175 mg/kg/day PO QD, compared to vehicle and control, FIG. 3B): significant reduction
glucose, non-fasting state ([2]; Compound 10 175 mg/kg/day PO QD, compared to vehicle and control (pioglitazone), FIG. 1A): significant reduction
oral glucose tolerance test (blood glucose, AUC), Day 29 ([2]; Day 29, after fourteen days of no treatment, FIGS. 5A-5B): significant glucose control
C-peptide two weeks after therapy ([2]; FIG. 7): increasing C-peptide
oral glucose tolerance test (blood glucose, AUC) ([2]; after fifteen days of treatment, 2 g/kg glucose, FIGS. 4A-4B): significant glucose control
4-hour fasting insulin after two weeks without therapy ([2]; no therapy for two weeks, statistically superior to control, FIG. 6A): increasing insulin
4-hour fasting glucose after two weeks without therapy ([2]; no therapy for two weeks, statistically superior to control, FIG. 6B): glucose lowering
absolute reduction in HbA1C versus vehicle ([3]; 28 days daily treatment, Day 29, FIG. 12): 3.5%
HbA1C throughout the entire study, including post-treatment ([3]; FIG. 12): remained reduced
oral glucose tolerance test (OGTT) on Day 25 ([3]; both Compound 10 dose groups, in contrast to vehicle and liraglutide): improved glycemic control
tolerability ([3]; daily treatment for twenty-eight days, throughout the study): tolerated Compound 10 well
4-hour fasting blood glucose ([3]; high-dose arm, during treatment up to Day 29): strong reduction
HbA1c, all doses tested ([4]; 4-week dosing study): significantly reduces; also recorded: significant reductions
fasting blood glucose levels, mid- and high-dose arms ([4]; 85 and 170 mg/kg QD, similar to liraglutide): reduction
HbA1c two weeks after the last dose ([4]; Day 15 post-dosing, FIG. 21): maintains a significant reduction
HbA1c absolute amount lower than the liraglutide group ([4]; Day 29): 1.8%
HbA1c absolute amount lower than the vehicle group ([4]; Day 29): 3.5%
HbA1c reduced from vehicle (relative) ([4]; Day 29): 33%
HbA1c relative reduction printed with the liraglutide comparison ([4]; Day 29, reduced from vehicle): 20%
glycemic control over four weeks of dosing ([4]; FIG. 20): durable glycemic control
fasting blood glucose, Day 29 ([4]; high-dose group, one day after treatment stopped): sustained and significant reduction
oral glucose tolerance test (OGTT) on Day 25, high-dose group ([4]; high-dose-treated group versus liraglutide): improved response versus liraglutide
oral glucose tolerance test (OGTT) on Day 25, all dose groups ([4]; in comparison to the vehicle-treated group): improved glycemic control
body weight over time [4, 9]: progressive increase
fasting blood glucose levels over time [4, 9]: progressive increase
fasting c-peptide levels [4, 10]: elevated
fasting insulin levels [4, 10]: elevated
body weight [5]: Significant reductions
blood glucose levels (non-fasting) during treatment ([5]; 175 mg/kg QD, measured weekly during treatment, FIG. 15B, 175 mg/kg): strongly reduces; also recorded: reduction of glucose levels
OGTT AUC reduction, Day 15 ([5]; Compound 10 175 mg/kg, pioglitazone 30 mg/kg QD, p<0.05): 41%
blood lipemic levels ([5]; p<0.01): Significant reductions
non-fasting glucose ([6]; STZ-induced Wistar Han rats, 175 mg/kg/day PO QD, compared to vehicle and control, FIG. 8): sharp reduction
insulin, 4-hour fasting state (FIG. 10B) ([6]; STZ-induced rats, Day 17): maintenance or reduction
insulin, non-fasting state (FIG. 10A) ([6]; STZ-induced rats, Days 1, 8 and 14): maintenance or reduction
insulin, non-fasting state (FIG. 9) ([6]; STZ-induced rats, Days 1 and 8): significant reduction
oral glucose tolerance test (blood glucose, AUC) ([6]; STZ-induced rats, after fifteen days of treatment, significant relative to vehicle and control, FIGS. 11A-11B): significant glucose control
